# Data as given in ChEMBL document CHEMBL1201862, “PubChem BioAssay data set” (2004).
#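 Dose response: 5 concentrations. Exposure: 48 h. Format: 96-well plates. Endpoint: linear interpolation; highest concentration if not reached. Abbreviation: GI50, concentration required for 50% inhibition of growth.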 Calls of active or inactive are those of the source. Rule as the data show it: active = GI50 up to about 1.1 µM and inactive = higher.
# Legend:
# Experiment in all cases: DTP human tumour cell line panel, 48 h
# SF-539 = test system: SF-539
# MOLT-4 = test system: MOLT-4
# HOP-62 = test system: HOP-62
# A498 = test system: A498
# SF-268 = test system: SF-268
# HOP-92 = test system: HOP-92
# KM-20L2 = test system: KM-20L2
# SF-295 = test system: SF-295
# SK-MEL-5 = test system: SK-MEL-5
# UACC-62 = test system: UACC-62
# SNB-19 = test system: SNB-19
# HCT-116 = test system: HCT-116
# HT-29 = test system: HT-29
# KM12 = test system: KM12
# SK-OV-3 = test system: SK-OV-3
# K562 = test system: K562
# LXFL 529 = test system: LXFL 529
# M14 = test system: M14
# SNB-78 = test system: SNB-78
# SK-MEL-28 = test system: SK-MEL-28
# NCI-H522 = test system: NCI-H522
# LOX IMVI = test system: LOX IMVI
# SN12C = test system: SN12C
# NCI-H460 = test system: NCI-H460
# SK-MEL-2 = test system: SK-MEL-2
# RXF 393 = test system: RXF 393
# EKVX = test system: EKVX
# COLO 205 = test system: COLO 205
# SNB-75 = test system: SNB-75
# HL-60 = test system: HL-60
# RXF 631 = test system: RXF 631
# SW-620 = test system: SW-620
# CCRF-CEM = test system: CCRF-CEM
# M19-MEL = test system: M19-MEL
# NCI-H226 = test system: NCI-H226
# OVCAR-4 = test system: OVCAR-4
# U-251 = test system: U-251
# NCI-H23 = test system: NCI-H23
# HCC 2998 = test system: HCC 2998
# ACHN = test system: ACHN
# DMS-114 = test system: DMS-114
# DMS-273 = test system: DMS-273
# OVCAR-8 = test system: OVCAR-8
# TK-10 = test system: TK-10
# IGROV-1 = test system: IGROV-1
# A549 = test system: A549
# RPMI-8226 = test system: RPMI-8226
# OVCAR-3 = test system: OVCAR-3
# 786-0 = test system: 786-0
# HCT-15 = test system: HCT-15
# OVCAR-5 = test system: OVCAR-5
# DLD-1 = test system: DLD-1
# UO-31 = test system: UO-31
# HOP-18 = test system: HOP-18
# Malme-3M = test system: Malme-3M
# CAKI-1 = test system: CAKI-1
# UACC-257 = test system: UACC-257
# SR = test system: SR
compound,measurement,setting,value
COc1cc(C(N)=O)c(OC)c(OC)c1OC,GI50,SF-539,> 100 µM (inactive)
same,GI50,MOLT-4,> 100 µM (inactive)
same,GI50,HOP-62,> 100 µM (inactive)
same,GI50,A498,> 100 µM (inactive)
same,GI50,SF-268,> 100 µM (inactive)
same,GI50,HOP-92,> 100 µM (inactive)
same,GI50,KM-20L2,> 100 µM (inactive)
same,GI50,SF-295,> 100 µM (inactive)
same,GI50,SK-MEL-5,> 100 µM (inactive)
same,GI50,UACC-62,> 100 µM (inactive)
same,GI50,SNB-19,> 100 µM (inactive)
same,GI50,HCT-116,> 100 µM (inactive)
same,GI50,HT-29,> 100 µM (inactive)
same,GI50,KM12,> 100 µM (inactive)
same,GI50,SK-OV-3,> 100 µM (inactive)
same,GI50,K562,> 100 µM (inactive)
same,GI50,LXFL 529,> 100 µM (inactive)
same,GI50,M14,> 100 µM (inactive)
same,GI50,SNB-78,> 100 µM (inactive)
same,GI50,SK-MEL-28,> 100 µM (inactive)
same,GI50,NCI-H522,> 100 µM (inactive)
same,GI50,LOX IMVI,> 100 µM (inactive)
same,GI50,SN12C,> 100 µM (inactive)
same,GI50,NCI-H460,> 100 µM (inactive)
same,GI50,SK-MEL-2,> 100 µM (inactive)
same,GI50,RXF 393,> 100 µM (inactive)
same,GI50,EKVX,> 100 µM (inactive)
same,GI50,COLO 205,> 100 µM (inactive)
same,GI50,SNB-75,69.8 µM (inactive)
same,GI50,HL-60,> 100 µM (inactive)
same,GI50,RXF 631,> 100 µM (inactive)
same,GI50,SW-620,> 100 µM (inactive)
same,GI50,CCRF-CEM,> 100 µM (inactive)
same,GI50,M19-MEL,> 100 µM (inactive)
same,GI50,NCI-H226,> 100 µM (inactive)
same,GI50,OVCAR-4,> 100 µM (inactive)
same,GI50,U-251,> 100 µM (inactive)
same,GI50,NCI-H23,> 100 µM (inactive)
same,GI50,HCC 2998,> 100 µM (inactive)
same,GI50,ACHN,> 100 µM (inactive)
same,GI50,DMS-114,> 100 µM (inactive)
same,GI50,DMS-273,> 100 µM (inactive)
same,GI50,OVCAR-8,> 100 µM (inactive)
same,GI50,TK-10,> 100 µM (inactive)
same,GI50,IGROV-1,> 100 µM (inactive)
same,GI50,A549,> 100 µM (inactive)
same,GI50,RPMI-8226,> 100 µM (inactive)
same,GI50,OVCAR-3,> 100 µM (inactive)
same,GI50,786-0,> 100 µM (inactive)
same,GI50,HCT-15,> 100 µM
same,GI50,OVCAR-5,> 100 µM (inactive)
same,GI50,DLD-1,> 100 µM (inactive)
same,GI50,UO-31,> 100 µM (inactive)
COc1ccc(N2C(=O)/C(=C/c3ccc(N(CCC#N)CCC#N)cc3C)N=C2/C=C\c2ccccc2)cc1,GI50,SF-539,10.8 µM (inactive)
same,GI50,MOLT-4,34.3 µM (inactive)
same,GI50,HOP-62,24.4 µM (inactive)
same,GI50,SF-268,22.6 µM (inactive)
same,GI50,HOP-92,> 100 µM (inactive)
same,GI50,KM-20L2,4.73 µM (inactive)
same,GI50,SF-295,35.5 µM (inactive)
same,GI50,SK-MEL-5,31.9 µM (inactive)
same,GI50,UACC-62,5.24 µM (inactive)
same,GI50,SNB-19,> 100 µM (inactive)
same,GI50,HCT-116,76.6 µM (inactive)
same,GI50,HT-29,38.9 µM (inactive)
same,GI50,KM12,28.1 µM (inactive)
same,GI50,SK-OV-3,49.7 µM (inactive)
same,GI50,K562,40.1 µM (inactive)
same,GI50,LXFL 529,8.43 µM (inactive)
same,GI50,M14,27.1 µM (inactive)
same,GI50,SNB-78,> 100 µM (inactive)
same,GI50,SK-MEL-28,31.4 µM (inactive)
same,GI50,NCI-H522,17 µM (inactive)
same,GI50,LOX IMVI,28.8 µM (inactive)
same,GI50,SN12C,4.35 µM (inactive)
same,GI50,HOP-18,> 100 µM (inactive)
same,GI50,NCI-H460,33.4 µM (inactive)
same,GI50,SK-MEL-2,> 100 µM (inactive)
same,GI50,Malme-3M,41.6 µM (inactive)
same,GI50,COLO 205,26.7 µM (inactive)
same,GI50,CAKI-1,29.2 µM (inactive)
same,GI50,SNB-75,> 100 µM (inactive)
same,GI50,UACC-257,99.1 µM (inactive)
same,GI50,HL-60,92.7 µM (inactive)
same,GI50,RXF 631,> 100 µM (inactive)
same,GI50,SW-620,33.2 µM (inactive)
same,GI50,CCRF-CEM,24 µM (inactive)
same,GI50,M19-MEL,26.5 µM (inactive)
same,GI50,NCI-H226,> 100 µM (inactive)
same,GI50,OVCAR-4,47 µM (inactive)
same,GI50,U-251,46.8 µM (inactive)
same,GI50,NCI-H23,49.5 µM (inactive)
same,GI50,ACHN,18.6 µM (inactive)
same,GI50,DMS-114,23.9 µM (inactive)
same,GI50,SR,44 µM (inactive)
same,GI50,OVCAR-8,42.7 µM (inactive)
same,GI50,TK-10,98.9 µM (inactive)
same,GI50,IGROV-1,68.4 µM (inactive)
same,GI50,A549,53 µM (inactive)
same,GI50,RPMI-8226,41.1 µM (inactive)
same,GI50,OVCAR-3,> 100 µM (inactive)
same,GI50,786-0,44.4 µM (inactive)
same,GI50,HCT-15,5.69 µM
same,GI50,OVCAR-5,> 100 µM (inactive)
same,GI50,DLD-1,> 100 µM (inactive)
same,GI50,UO-31,14 µM (inactive)
CC(C)c1cccc(C(C)C)c1NC1=CC(=O)C(=O)c2ccccc21,GI50,SF-539,> 100 µM (inactive)
same,GI50,MOLT-4,58.5 µM (inactive)
same,GI50,HOP-62,> 100 µM (inactive)
same,GI50,A498,> 100 µM (inactive)
same,GI50,SF-268,> 100 µM (inactive)
same,GI50,HOP-92,> 100 µM (inactive)
same,GI50,KM-20L2,> 100 µM (inactive)
same,GI50,SF-295,> 100 µM (inactive)
same,GI50,SK-MEL-5,> 100 µM (inactive)
same,GI50,UACC-62,> 100 µM (inactive)
same,GI50,SNB-19,> 100 µM (inactive)
same,GI50,HCT-116,> 100 µM (inactive)
same,GI50,HT-29,> 100 µM (inactive)
same,GI50,KM12,> 100 µM (inactive)
same,GI50,SK-OV-3,> 100 µM (inactive)
same,GI50,K562,> 100 µM (inactive)
same,GI50,LXFL 529,> 100 µM (inactive)
same,GI50,M14,> 100 µM (inactive)
same,GI50,SNB-78,> 100 µM (inactive)
same,GI50,SK-MEL-28,> 100 µM (inactive)
same,GI50,NCI-H522,58.6 µM (inactive)
same,GI50,LOX IMVI,36.3 µM (inactive)
same,GI50,SN12C,> 100 µM (inactive)
same,GI50,HOP-18,> 100 µM (inactive)
same,GI50,NCI-H460,> 100 µM (inactive)
same,GI50,SK-MEL-2,> 100 µM (inactive)
same,GI50,RXF 393,> 100 µM (inactive)
same,GI50,Malme-3M,> 100 µM (inactive)
same,GI50,EKVX,> 100 µM (inactive)
same,GI50,COLO 205,> 100 µM (inactive)
same,GI50,CAKI-1,> 100 µM (inactive)
same,GI50,UACC-257,67 µM (inactive)
same,GI50,HL-60,77.8 µM (inactive)
same,GI50,RXF 631,> 100 µM (inactive)
same,GI50,SW-620,> 100 µM (inactive)
same,GI50,CCRF-CEM,> 100 µM (inactive)
same,GI50,M19-MEL,22.3 µM (inactive)
same,GI50,NCI-H226,> 100 µM (inactive)
same,GI50,U-251,> 100 µM (inactive)
same,GI50,NCI-H23,72.9 µM (inactive)
same,GI50,HCC 2998,> 100 µM (inactive)
same,GI50,DMS-273,> 100 µM (inactive)
same,GI50,SR,35.5 µM (inactive)
same,GI50,OVCAR-8,> 100 µM (inactive)
same,GI50,TK-10,> 100 µM (inactive)
same,GI50,IGROV-1,> 100 µM (inactive)
same,GI50,A549,> 100 µM (inactive)
same,GI50,RPMI-8226,> 100 µM (inactive)
same,GI50,OVCAR-3,> 100 µM (inactive)
same,GI50,786-0,> 100 µM (inactive)
same,GI50,HCT-15,> 100 µM
same,GI50,OVCAR-5,> 100 µM (inactive)
same,GI50,DLD-1,> 100 µM (inactive)
same,GI50,UO-31,> 100 µM (inactive)
